The record followed here is PubChem BioAssay (NCI).

Among the test systems are MDA-MB-231 breast; SK-MEL-5 melanoma; NCI/ADR-RES ovarian; HS 578T breast; 786-0 renal; SW-620 colon; RPMI-8226 leukemia; OVCAR-5 ovarian; COLO 205 colon; SK-MEL-28 melanoma.
Experiment in all cases: DTP human tumour cell line panel, 48 h

As usually defined, the TGI is the concentration giving total growth inhibition. A word on the GI50: it is the concentration that inhibits growth by half.

SMILES strings stand for the structures.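 Cells were grown in 96-well plates and exposed to each compound for 48 hours at five concentrations; endpoints were interpolated linearly between bracketing concentrations, or set to the highest concentration if not reached. GI50 marks 50% less growth. TGI: total growth inhibition.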

As for `CS(=O)(=O)OCCN(CCOS(C)(=O)=O)c1ccc(C=Nc2ccc3oc(=O)ccc3c2)cc1`, the TGI was 80.8 µM with MDA-MB-231 breast; 32.8 µM in the experiment with SK-MEL-5 melanoma; 62.5 µM with NCI/ADR-RES ovarian; 92.1 µM with HS 578T breast; 3.5 µM in the experiment with 786-0 renal; > 83.1 µM with SW-620 colon. For the same compound, the TGI in the experiment with RPMI-8226 leukemia is 49.1 µM; in the experiment with OVCAR-5 ovarian, 28.9 µM; with COLO 205 colon, 10.3 µM; in the experiment with SK-MEL-28 melanoma it was 64.4 µM.

In the case of `CC(=O)NCCCCCCNC(C)=O`, the concentration for total growth inhibition (TGI) in the experiment on MDA-MB-231 breast is > 5620 µM; with SK-MEL-5 melanoma, > 10000 µM; in the experiment with NCI/ADR-RES ovarian, > 10000 µM; in the experiment with HS 578T breast it was > 10000 µM; in the experiment on 786-0 renal, > 10000 µM; in the experiment on SW-620 colon, > 10000 µM. Also, the TGI in the experiment with RPMI-8226 leukemia, in the experiment on OVCAR-5 ovarian, with COLO 205 colon and with SK-MEL-28 melanoma was > 10000 µM in each case.

Turning to `Oc1ccc(Br)cc1/C=N/NC(=S)NC12CC3CC(CC(C3)C1)C2`, the GI50 in the experiment on MDA-MB-231 breast was 1.95 µM; with SK-MEL-5 melanoma, 1720 nM; in the experiment on NCI/ADR-RES ovarian it was 2.71 µM; with HS 578T breast, 1.99 µM; with 786-0 renal, 2.32 µM; with SW-620 colon it was 1.74 µM. In addition, the GI50 with RPMI-8226 leukemia is 2070 nM; in the experiment on OVCAR-5 ovarian, 1.89 µM; in the experiment on COLO 205 colon it was 3.44 µM; with SK-MEL-28 melanoma, 2.66 µM. The total growth inhibition concentration (TGI) turned out to be 5.54 µM with MDA-MB-231 breast; 3.74 µM in the experiment on SK-MEL-5 melanoma; 7.89 µM in the experiment with NCI/ADR-RES ovarian; 6.69 µM in the experiment on HS 578T breast; 5.05 µM in the experiment with 786-0 renal; 3.47 µM with SW-620 colon. Moreover, the TGI was determined as 5.8 µM in the experiment with RPMI-8226 leukemia, 4.78 µM with OVCAR-5 ovarian, 11.1 µM in the experiment with COLO 205 colon and 10.1 µM in the experiment with SK-MEL-28 melanoma.

Take `CCN(Cc1nc2cc(C(F)(F)F)ccc2nc1-c1ccccc1)c1ccc(OC)c(OC)c1`: the GI50 with MDA-MB-231 breast is 12.7 µM; in the experiment on SK-MEL-5 melanoma, 13900 nM; in the experiment on NCI/ADR-RES ovarian, 29.2 µM; with HS 578T breast, 11.4 µM; in the experiment with 786-0 renal, 15.7 µM; in the experiment with SW-620 colon, 16.6 µM. The GI50 with RPMI-8226 leukemia was 2510 nM; with OVCAR-5 ovarian it was 21.6 µM; in the experiment with COLO 205 colon, 31.4 µM; in the experiment with SK-MEL-28 melanoma, 25.2 µM. Further, the TGI with MDA-MB-231 breast was 29.2 µM; with SK-MEL-5 melanoma, 28 µM; with NCI/ADR-RES ovarian, > 100 µM; with HS 578T breast it was 30 µM; in the experiment with 786-0 renal it was 30.3 µM; in the experiment on SW-620 colon, 36.5 µM. For the same compound, the TGI in the experiment on RPMI-8226 leukemia was 11.2 µM; in the experiment with OVCAR-5 ovarian it was 46 µM; in the experiment on COLO 205 colon, > 100 µM; in the experiment on SK-MEL-28 melanoma it was 76 µM.

On to `CCCC[P+](c1ccccc1)(c1ccccc1)c1ccccc1`, for which the GI50 was 9.13 µM in the experiment on MDA-MB-231 breast; 534 nM with SK-MEL-5 melanoma; > 100 µM in the experiment with NCI/ADR-RES ovarian; 3.38 µM in the experiment on HS 578T breast; 19.5 µM in the experiment on 786-0 renal; 3.46 µM in the experiment with SW-620 colon. In addition, the GI50 with RPMI-8226 leukemia was 193 nM; in the experiment with OVCAR-5 ovarian, 12.5 µM; with COLO 205 colon it was 1.24 µM; in the experiment on SK-MEL-28 melanoma, 28.1 µM. For the same compound, the TGI was > 100 µM in the experiment on MDA-MB-231 breast; 6.63 µM in the experiment with SK-MEL-5 melanoma; > 100 µM in the experiment with NCI/ADR-RES ovarian; 20.7 µM in the experiment with HS 578T breast; > 100 µM in the experiment on 786-0 renal; > 100 µM in the experiment on SW-620 colon. The TGI with RPMI-8226 leukemia was 0.869 µM; in the experiment on OVCAR-5 ovarian, > 100 µM; in the experiment with COLO 205 colon, 7.15 µM; in the experiment with SK-MEL-28 melanoma it was > 100 µM.

Regarding `COC(=O)c1c2c(c(C)[n+]([O-])c1C)C(=O)C(NCc1cccc(OC)c1)=CC2=O`, the GI50 is 2.21 µM in the experiment with MDA-MB-231 breast; 1200 nM with SK-MEL-5 melanoma; 2.36 µM in the experiment on NCI/ADR-RES ovarian; 4.1 µM in the experiment with HS 578T breast; 3.6 µM in the experiment on 786-0 renal; 2.65 µM in the experiment with SW-620 colon. The GI50 in the experiment with RPMI-8226 leukemia was 2930 nM; in the experiment with OVCAR-5 ovarian it was 2.05 µM; with COLO 205 colon, 1.1 µM; with SK-MEL-28 melanoma, 4.6 µM. Further, the TGI came to 6.24 µM in the experiment on MDA-MB-231 breast; 2.47 µM in the experiment on SK-MEL-5 melanoma; 6.74 µM in the experiment with NCI/ADR-RES ovarian; 34.7 µM in the experiment with HS 578T breast; 27.1 µM in the experiment on 786-0 renal; 8.96 µM with SW-620 colon. In addition, the TGI with RPMI-8226 leukemia worked out at 15.9 µM; with OVCAR-5 ovarian, 4.76 µM; with COLO 205 colon, 2.86 µM; in the experiment on SK-MEL-28 melanoma, 18.2 µM.

For the compound `CCOC(=O)c1cc2cc(NC(=O)c3cc4cc([N+](=O)[O-])ccc4n3C)ccc2n1C`, the GI50 was 2.69 µM with MDA-MB-231 breast; 74000 nM in the experiment on SK-MEL-5 melanoma; 16.8 µM in the experiment on NCI/ADR-RES ovarian; 97.5 µM with HS 578T breast; 17.6 µM in the experiment with 786-0 renal; 93.5 µM in the experiment on SW-620 colon. Moreover, the GI50 in the experiment on RPMI-8226 leukemia is 49700 nM; in the experiment with OVCAR-5 ovarian, 21.7 µM; in the experiment on COLO 205 colon it was 76.5 µM; in the experiment with SK-MEL-28 melanoma it was 63.6 µM. In addition, the TGI with MDA-MB-231 breast is 16.3 µM; in the experiment with SK-MEL-5 melanoma it was > 100 µM; in the experiment on NCI/ADR-RES ovarian, 45.3 µM; in the experiment on HS 578T breast, > 100 µM; with 786-0 renal, 31.9 µM; with SW-620 colon, > 100 µM. Moreover, the TGI is > 100 µM in the experiment on RPMI-8226 leukemia, 61.9 µM in the experiment with OVCAR-5 ovarian, > 100 µM in the experiment on COLO 205 colon and > 100 µM with SK-MEL-28 melanoma.

Regarding `O=C(c1ccco1)c1c(C(F)(F)F)nc2cc(C(F)(F)F)ccc2[n+]1[O-]`, the GI50 in the experiment with MDA-MB-231 breast was 18.9 µM; in the experiment with SK-MEL-5 melanoma, > 100000 nM; in the experiment on NCI/ADR-RES ovarian, 67.2 µM; in the experiment with HS 578T breast, 26.7 µM; in the experiment on 786-0 renal it was 36.7 µM; with SW-620 colon, > 100 µM. The GI50 was 34400 nM with RPMI-8226 leukemia, 67.8 µM with OVCAR-5 ovarian, > 100 µM with COLO 205 colon and > 100 µM in the experiment on SK-MEL-28 melanoma. Also, the TGI with MDA-MB-231 breast was 40.9 µM; with SK-MEL-5 melanoma, > 100 µM; with NCI/ADR-RES ovarian, > 100 µM; in the experiment on HS 578T breast it was 74.9 µM; with 786-0 renal it was > 100 µM; in the experiment on SW-620 colon, > 100 µM. Moreover, the total growth inhibition concentration (TGI) in the experiment with RPMI-8226 leukemia, in the experiment with OVCAR-5 ovarian, in the experiment with COLO 205 colon and in the experiment on SK-MEL-28 melanoma was > 100 µM in each case.
